Source: paper PMC5071857, “A unique peptide deformylase platform to rationally design and challenge novel active compounds” (Scientific Reports, 2016)
Where two headings read alike, the source gives them in different places.

What was measured:
[1] = target: T1, SaPDF (Streptococcus agalactiae serotype III, UniProt Q8E378, S2A); assay: biochemical; conditions: for Ki: SaPDF KI, no pre-incubation, assay initiated by addition of enzyme, 40 nM SaPDF, 37 °C; for SaPDF KI/KI*app: enhancement potency (slow tight-binding)
T1 construct: the recombinant protein contains all residues of the 204 amino acids mature protein; made in house; host or cells: E. coli Rosetta 2(DE3)pLysS
Description: (§1) Enzymatic activity was measured by a spectrophotometric assay where peptide deformylase activity is coupled to that of formate dehydrogenase. The formate released by the deformylation reaction is used by FDH to convert NAD in NADH, the production of which being measured over time at 340 nm and controlled temperature (37 °C). The 200 μL reaction mixture contained 50 mM HEPES-NaOH pH7.5, 12 mM NAD^+, 4.5 U/mL FDH, 1 mM NiCl2 and PDF enzyme (either 40 nM SaPDF or 10 nM EcPDF or 100 nM AtPDF1B) previously diluted in presence of 0.1 mg/mL BSA. The reaction was started by addition of 1–6 mM Fo-Met-Ala-Ser. Kinetics parameters (kcat, Km) were derived from iterative non-linear least square fits using the Michaelis-menten equation based on the experimental data (Sigma-Plot, Kinetics module).
(§2) 1/KI*app is the slope of the v0/vi curve in function of compound concentration, where v0 and vi are the initial reaction rates in absence and presence of compound, respectively.
(§3) Determination of KI values was performed with a slightly modified protocol: reaction was started by addition of enzyme instead of Fo-Met-Ala-Ser, the latter being directly added to the mixture containing increasing concentrations of each compound. No pre-incubation of enzyme in presence of compound was done. 1/KI is the slope of the v0/vi curve in function of compound concentration, where v0 and vi are the initial reaction rates in absence and presence of compound respectively.

[2] = target: T2, EcPDF (Escherichia coli, UniProt P0A6K3); assay: PDF inhibition, formate dehydrogenase-coupled spectrophotometric assay (EcPDF); format: biochemical; conditions: for Ki: 10 nM EcPDF; for EcPDF KI/KI*app: enhancement potency (slow tight-binding)
T2 construct: made in house
Description: as §1, with “The” for “Enzymatic activity was measured by a spectrophotometric assay where peptide deformylase activity is coupled to that of formate dehydrogenase. The”
as §2, §3

[3] = target: T3, AtPDF1B (Arabidopsis thaliana, UniProt Q9FUZ2); assay: PDF inhibition, formate dehydrogenase-coupled spectrophotometric assay (AtPDF1B); format: biochemical; conditions: for IC50 / Ki: 100 nM AtPDF1B; for IC50: 2 mM Fo-Met-Ala-Ser, 10 min pre-incubation at 37 °C; for Ki: PDFI pre-incubated with enzyme 10 min at 37 °C, started by 2 mM Fo-Met-Ala-Ser, read-out: AtPDF1B KI*app; for AtPDF1B KI/KI*app: enhancement potency (slow tight-binding)
T3 construct: made in house
T3 sequence (Q9FUZ2 83-273): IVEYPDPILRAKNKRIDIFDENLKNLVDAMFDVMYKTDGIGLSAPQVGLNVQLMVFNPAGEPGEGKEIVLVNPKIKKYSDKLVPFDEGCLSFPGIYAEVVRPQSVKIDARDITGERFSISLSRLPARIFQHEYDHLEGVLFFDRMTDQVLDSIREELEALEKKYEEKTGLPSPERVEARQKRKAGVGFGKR
Description: as §1, §2, §3

[4] = tested on: E. coli AG100; assay: MIC by microdilution, E. coli AG100; format: cell-based; conditions: 18 h at 37 °C, average of three assays; for MIC: Escherichia coli, AG100, without PMBN; for MIC AG100: with PMBN at 1/5 of its MIC
Excerpt: (§4) Two E. coli strains, one B. subtilis strain, one S. aureus strain, one E. faecalis strain, one S. agalactiae strain and three Enterobacter aerogenes strains previously described were used. Briefly, AG100 was an E. coli wild type strain and AG100A its acrAB^- derivative. EA289 was a Kan^s derivative of an E. aerogenes multi-drug resistant (MDR) clinical isolate overexpressing AcrAB-TolC efflux pumps, and EA294 and EA298 its acrAB^- and tolC^- derivatives respectively. Strains were routinely grown at 37 °C on Luria-Bertani (LB) agar or in Mueller-Hinton II broth (MH), supplemented with kanamycine (50 μg.mL^−1) for AG100A, EA294 and EA298.
(§5) MIC values of antibiotics were determined by the microdilution method in liquid MH media in microplates in the absence or presence of chemosensitizers/modulators (e.g. PMBN, PAβN), as previously described. Permeabilization, blocking of efflux pumps, and isolates with different levels of porin or efflux expression were used to assess the involvement of the membrane barrier in antibiotic activity.
(§6) Susceptibilities were determined in 96-wells microplates with an inoculum of 2 × 10^5 cfu in 200 μL of MH broth containing two-fold serial dilutions of each antibiotics or compounds. Molecules were tested alone or in combination with other molecules in equimolar ratio. MICs were realized in the absence and in the presence of a membrane permeabilizer, the polymyxine B nonapeptide (PMBN) used at 51.2 mg/L (1/5 or 1/10 of its direct MIC previously determined). Actinonin and ciprofloxacin were used as internal antibiotic reference. […] Each test was systematically performed in triplicate. The average of three independent assays is presented in μg/mL in the respective tables.

[5] = tested on: E. coli AG100A (AcrAB- derivative); assay: MIC by microdilution, E. coli AG100A; format: cell-based; conditions: for MIC: Escherichia coli, 18 h, read-out: MIC AG100A; for MIC AG100A: with PMBN at 1/5 of its MIC, 18 h at 37 °C, average of three assays
Excerpt: as §4, §5, §6

[6] = tested on: E. aerogenes Ea289, MDR strain; assay: MIC by microdilution, E. aerogenes Ea289; format: cell-based, Enterobacter aerogenes; conditions: for MIC Ea289: +PMBN at 1/5 of its MIC, average of three assays; for MIC: Klebsiella aerogenes, 18 h, read-out: MIC Ea289
Excerpt: as §4, §5, §6

[7] = tested on: E. aerogenes Ea294, Ea289 derivative AcrAB-; assay: MIC by microdilution, E. aerogenes Ea294; format: cell-based, Enterobacter aerogenes; conditions: for MIC Ea294: +PMBN at 1/5 of its MIC, average of three assays; for MIC: Klebsiella aerogenes, 18 h, read-out: MIC Ea294
Excerpt: as §4, §5, §6

[8] = tested on: E. aerogenes Ea298, Ea289 derivative tolC-; assay: MIC by microdilution, E. aerogenes Ea298; format: cell-based, Enterobacter aerogenes; conditions: for MIC Ea298: +PMBN at 1/5 of its MIC, average of three assays; for MIC: Klebsiella aerogenes, 18 h, read-out: MIC Ea298
Excerpt: as §4, §5, §6

[9] = tested on: S. aureus SA113; assay: MIC, S. aureus SA113; format: cell-based; conditions: Staphylococcus aureus
Excerpt: as §4, §5, §6

[10] = tested on: E. faecalis EFA 103.214; assay: MIC, E. faecalis EFA 103.214; format: cell-based; conditions: Enterococcus faecalis, EFA103.214, read-out: MIC E. faecalis EFA 103.214
Excerpt: as §4, §5, §6

[11] = target: T1, SaPDF; assay: biochemical; conditions: SaPDF KI*app, PDFI pre-incubated with enzyme 10 min at 37 °C, started by 2 mM Fo-Met-Ala-Ser; 40 nM SaPDF
[12] = target: T3, AtPDF1B; assay: PDF inhibition, formate dehydrogenase-coupled spectrophotometric assay (AtPDF1B); format: biochemical; conditions: no pre-incubation, assay initiated by addition of enzyme; 100 nM AtPDF1B; 37 °C
[13] = EcPDF KI*app, PDFI pre-incubated with enzyme 10 min at 37 °C, started by 2 mM Fo-Met-Ala-Ser
[14] = EcPDF KI, no pre-incubation, assay initiated by addition of enzyme, 37 °C

T1 sequence (Q8E378 whole entry S2A): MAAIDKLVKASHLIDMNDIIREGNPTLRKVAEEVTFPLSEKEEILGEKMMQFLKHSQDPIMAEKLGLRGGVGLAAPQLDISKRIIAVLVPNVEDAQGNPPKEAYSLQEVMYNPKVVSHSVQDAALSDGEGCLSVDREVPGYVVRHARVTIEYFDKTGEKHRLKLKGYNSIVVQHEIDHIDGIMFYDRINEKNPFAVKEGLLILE
T2 sequence (P0A6K3 whole entry): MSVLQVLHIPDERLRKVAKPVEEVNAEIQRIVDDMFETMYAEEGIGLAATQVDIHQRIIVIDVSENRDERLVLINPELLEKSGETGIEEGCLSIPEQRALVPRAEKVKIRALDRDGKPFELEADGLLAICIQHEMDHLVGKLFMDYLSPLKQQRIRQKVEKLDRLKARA

CCCC[C@H](CC(=O)NO)c1nc(Cc2coc3ccccc23)no1 [AT015]
IC50 [1]: 20 ± 3 nM
Ki [1]: 166 ± 12 nM
SaPDF KI/KI*app [1]: 1
IC50 [2]: 17 ± 2 nM
Ki [2, 13]: 10 ± 2 nM
Ki [2, 14]: 35 ± 5 nM
EcPDF KI/KI*app [2]: 3
IC50 [3]: 300 ± 12 nM
Ki [3]: 1100 nM
MIC [4]: > 64 µg/mL
MIC AG100 [4]: 16 µg/mL
MIC [5]: 32 µg/mL
MIC AG100A [5]: 2 µg/mL
MIC Ea289 [6]: 128 µg/mL
MIC [6]: > 128 µg/mL
MIC Ea294 [7]: 16 µg/mL
MIC [7]: > 128 µg/mL
MIC Ea298 [8]: 8 µg/mL
MIC [8]: 128 µg/mL
MIC [9]: > 64 µg/mL
MIC [10]: > 64 µg/mL
Ki [11]: 122 ± 13 nM

CCCCC(CC(=O)NO)c1nc(-c2ccc(C(F)(F)F)cc2)no1 (stereo not drawn) [AT011]
IC50 [1]: 128 ± 32 nM
Ki [1]: 400 ± 20 nM
SaPDF KI/KI*app [1]: 1
IC50 [2]: 215 ± 17 nM
Ki [2, 13]: 333 ± 13 nM
IC50 [3]: 6000 nM
Ki [3]: 5000 nM
MIC [4]: > 64 µg/mL
MIC AG100 [4]: 8 µg/mL
MIC [5]: 32 µg/mL
MIC AG100A [5]: 4 µg/mL
MIC Ea289 [6]: 64 µg/mL
MIC [6]: > 128 µg/mL
MIC Ea294 [7]: 16 µg/mL
MIC [7]: 128 µg/mL
MIC Ea298 [8]: 16 µg/mL
MIC [8]: 128 µg/mL
MIC [9]: > 64 µg/mL
MIC [10]: > 64 µg/mL
Ki [11]: 430 ± 39 nM

O=C(Cc1c[nH]c2ccc(Br)cc12)NO [AB47]
IC50 [1]: 63 ± 6 nM
Ki [1]: 62 ± 3 nM
SaPDF KI/KI*app [1]: 1
IC50 [2]: 37 ± 5 nM
Ki [2, 13]: 39 ± 2 nM
Ki [2, 14]: 47 ± 2 nM
EcPDF KI/KI*app [2]: 1
IC50 [3]: 360 ± 31 nM
Ki [3]: 400 ± 35 nM
AtPDF1B KI/KI*app [3]: 1
MIC [4]: > 64 µg/mL
MIC AG100 [4]: 64 µg/mL
MIC [5]: 64 µg/mL
MIC AG100A [5]: 32 µg/mL
Ki [11]: 73 ± 5 nM
Ki [12]: 455 ± 89 nM

CC(C)(C)OC(=O)N[C@@H](Cc1ccccc1)CN(O)C=O [RAS358]
IC50 [1]: 150 ± 12 nM
Ki [1]: 1430 ± 125 nM
SaPDF KI/KI*app [1]: 3
IC50 [2]: 110 ± 10 nM
Ki [2, 13]: 164 ± 40 nM
Ki [2, 14]: 833 ± 30 nM
EcPDF KI/KI*app [2]: 5
IC50 [3]: 251 ± 15 nM
Ki [3]: 400 ± 37 nM
AtPDF1B KI/KI*app [3]: 5
Ki [11]: 454 ± 29 nM
Ki [12]: 2000 ± 150 nM

CCCCC(CC(=O)NO)c1nc(Cc2ccc(C(=O)OC)cc2)no1 (stereo not drawn) [AT018]
IC50 [1]: 20 ± 1 nM
Ki [1]: 38 ± 6 nM
SaPDF KI/KI*app [1]: 2
IC50 [2]: 20 ± 2 nM
Ki [2, 13]: 12 ± 1 nM
Ki [2, 14]: 49 ± 3 nM
EcPDF KI/KI*app [2]: 4
IC50 [3]: 650 ± 20 nM
Ki [3]: 833 ± 10 nM
AtPDF1B KI/KI*app [3]: 1
MIC [4]: > 64 µg/mL
MIC AG100 [4]: 64 µg/mL
MIC [5]: > 64 µg/mL
MIC AG100A [5]: 16 µg/mL
Ki [11]: 18 ± 1 nM
Ki [12]: 1110 ± 100 nM

CCCC[C@H](CC(=O)NO)c1nc(Cc2ccc(OC(F)(F)F)cc2)no1 [AT013]
IC50 [1]: 11 ± 1 nM
Ki [1]: 70 ± 5 nM
SaPDF KI/KI*app [1]: 1
IC50 [2]: 78 ± 11 nM
Ki [2, 13]: 80 ± 10 nM
Ki [2, 14]: 73 ± 12 nM
EcPDF KI/KI*app [2]: 1
IC50 [3]: 500 ± 15 nM
Ki [3]: 303 ± 12 nM
MIC [4]: > 64 µg/mL
MIC AG100 [4]: 16 µg/mL
MIC [5]: 32 µg/mL
MIC AG100A [5]: 4 µg/mL
MIC Ea289 [6]: 64 µg/mL
MIC [6]: > 128 µg/mL
MIC Ea294 [7]: 16 µg/mL
MIC [7]: > 128 µg/mL
MIC Ea298 [8]: 16 µg/mL
MIC [8]: 128 µg/mL
MIC [9]: > 64 µg/mL
MIC [10]: > 64 µg/mL
Ki [11]: 51 ± 3 nM

O=C(O)c1cn(C2CC2)c2cc(N3CCNCC3)c(F)cc2c1=O [Ciprofloxacin, ciprofloxacin, reference compound]
MIC Ea289 [6]: 64 µg/mL
MIC [6]: 64 µg/mL
MIC Ea294 [7]: 8 µg/mL
MIC [7]: 16 µg/mL
MIC Ea298 [8]: 4 µg/mL
MIC [8]: 8 µg/mL
